For this assay, the system named is IL-13 release from KU812 cells. The assay is described as follows: IL-13 release assay in KU812 cells (PMA + ionomycin, IL-13 ELISA). The format is cell-based, human. (ELISA stands for enzyme-linked immunosorbent assay.)

Each structure is given as a SMILES string. Like-named read-outs stand apart in the source and are kept apart here.

As a reminder, the inhibition is the change of the read-out against control, counted positive when it falls.

As for `C[C@@H]1C[C@H]2[C@@H]3CCC4=CC(=O)C=C[C@]4(C)[C@@]3(F)[C@@H](O)C[C@]2(C)[C@@]1(O)C(=O)CO` [Dexamethasone], the inhibition at 10 µM (Homo sapiens, positive control 10 μM, read-out: Percentages of IL-13 inhibition) is 52%.
Turning to `O=c1c(O)c(-c2ccc(O)c(O)c2)oc2cc(O)ccc12` [Fistein, Fisetin], the inhibition at 1 µM (Homo sapiens, 1 μM, read-out: Percentages of IL-13 inhibition) was found to be 26.5%. In addition, the inhibition at 10 µM (Homo sapiens, 10 μM (Fistein), read-out: Percentages of IL-13 inhibition) stood at 17.3%. In addition, the inhibition at 100 µM (Homo sapiens, 100 μM, read-out: Percentages of IL-13 inhibition) came to 35.7%. Moreover, the “IL-13 release / inhibition, in words” value (first screening (Examples 1 and 3)) is reported as “the inhibition percentages were relatively low”.

(Values after patent US10967031B2, “Synergistic herbal compositions with prebiotic properties for treatment of skin infections, allergies and inflammation” (priority 2010, dated 2021).)
